Publication PMC2962730 (Journal of neurochemistry, 2010)
Residue numbers refer to the chain shown, from its start.

What was measured:
VAChT C391Y = conditions: ref Zhu et al. (2001); cited from earlier work
hVAChT W325H = molecular target: T1, hVAChT W325H (Homo sapiens, UniProt Q16572, W325H); assay: ACh equilibrium binding by competition against [3H]vesamicol
T1 sequence (Q16572 1-532 W325H): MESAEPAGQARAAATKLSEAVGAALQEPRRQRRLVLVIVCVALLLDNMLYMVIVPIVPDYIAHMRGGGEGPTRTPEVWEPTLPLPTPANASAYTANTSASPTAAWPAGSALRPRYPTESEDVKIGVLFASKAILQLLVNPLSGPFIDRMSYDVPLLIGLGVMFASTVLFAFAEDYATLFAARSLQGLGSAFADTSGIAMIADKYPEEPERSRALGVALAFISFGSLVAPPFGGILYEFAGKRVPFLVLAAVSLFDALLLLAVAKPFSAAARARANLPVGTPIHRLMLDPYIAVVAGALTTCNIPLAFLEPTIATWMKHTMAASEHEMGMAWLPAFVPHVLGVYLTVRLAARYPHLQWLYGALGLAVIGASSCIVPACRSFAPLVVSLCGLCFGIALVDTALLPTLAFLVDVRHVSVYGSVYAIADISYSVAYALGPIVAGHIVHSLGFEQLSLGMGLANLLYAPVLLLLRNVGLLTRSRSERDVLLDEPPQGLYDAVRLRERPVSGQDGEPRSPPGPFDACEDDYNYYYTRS

hVAChT F392A = molecular target: T2, hVAChT F392A (Homo sapiens, UniProt Q16572, F392A); assay: as above
T2 sequence (Q16572 1-532 F392A): T1 sequence (Q16572 1-532 W325H) with H325W, F392A

hVAChT Y60A = molecular target: T3, hVAChT Y60A (Homo sapiens, UniProt Q16572, Y60A); assay: [3H]vesamicol saturation binding; conditions: pH 7.4
T3 sequence (Q16572 1-532 Y60A): T1 sequence (Q16572 1-532 W325H) with Y60A, H325W

hVAChT M316A = molecular target: T4, hVAChT M316A (Homo sapiens, UniProt Q16572, M316A); assay: [3H]vesamicol saturation binding; conditions: pH 7.4
T4 sequence (Q16572 1-532 M316A): T1 sequence (Q16572 1-532 W325H) with M316A, H325W

hVAChT K317A = molecular target: T5, hVAChT K317A (Homo sapiens, UniProt Q16572, K317A); assay: [3H]vesamicol saturation binding; conditions: pH 7.4
T5 sequence (Q16572 1-532 K317A): T1 sequence (Q16572 1-532 W325H) with K317A, H325W

Row | SMILES | higher KM value for transport (VAChT C391Y) [fold] | Kd (hVAChT W325H) [mM] | FHA, fraction of the ACh sites that have high affinity (hVAChT W325H; W325H hVAChT, pH 7.4) | Kd (hVAChT F392A) [mM] | FHA, fraction of the ACh sites that have high affinity (hVAChT F392A; F392A hVAChT, pH 7.4) | Bmax, maximal specific [3H]vesamicol binding (VAChT expression level) (hVAChT Y60A) [pmol/mg] | Bmax, maximal specific [3H]vesamicol binding (VAChT expression level) (hVAChT M316A) [pmol/mg] | Bmax, maximal specific [3H]vesamicol binding (VAChT expression level) (hVAChT K317A) [pmol/mg]
1 | CC(=O)OCC[N+](C)(C)C [ACh, acetylcholine] | 2.6 | 5.5 ± 0.9 | 0.82± 0.06 | 7.9 ± 1.3 | 0.91 ± 0.06 | – | – | –
2 | O[C@@H]1CCCC[C@H]1N1CCC(c2ccccc2)CC1 (racemic) [vesamicol, ( )-trans-2-(4-phenylpiperidino)cyclohexanol] | – | – | – | – | – | 31 ± 2 | 38 ± 2 | 21 ± 1
